Our source for the solubility values is patent publication US20250382344A1, “Soluble GLP1/GIP/NPY2 Receptor Triple Agonists” (Boehringer Ingelheim International GmH, priority 2024, published 2025).

A short description of this data set: Solubility in 0.1 M phosphate buffer at pH 7. The note with it: 0.1 M phosphate buffer at pH 7, 10 mg/mL final peptide concentration, shaking 2 hours at room temperature, peptides as TFA-salts, measured sample pH 6.5-7.0; for solubility: read-out: Solubility. Format: physicochemical. As to the method: Peptides (as TFA-salts) were weighed out in a filter unit (Mini-UniPrep Syringeless Filter 0.45 μm, Whatman PVDF), and 0.1 M phosphate buffer at pH 7 was added to achieve 10 mg/mL final peptide concentration. The peptides were dissolved by shaking the filter units horizontally at 600 rpm for 2 hours at room temperature. Samples were then filtered to remove any insoluble particles. Controls were prepared by weighing out the corresponding peptide solid material and dissolving it in an appropriate vehicle (e.g. ACN:H2O) to a final concentration of 1 mg/mL. Both, the control and sample were analyzed by reversed phase chromatography. The area under the peak of the sample was compared to the control and the solubility was calculated based on that ratio. The pH was measured and recorded for each sample.

Broadly, the solubility is the dissolved amount per volume that the medium holds.

As to `CC[C@H](C)[C@H](NC(=O)[C@H](CC(C)C)NC(=O)[C@H](Cc1c[nH]cn1)NC(=O)[C@H](CCCNC(=N)N)NC(=O)[C@@H](NC(=O)[C@H](Cc1ccccc1)NC(=O)[C@H](C)NC(=O)C(C)(C)NC(=O)[C@H](CCC(N)=O)NC(=O)[C@H](C)NC(=O)[C@H](CCC(N)=O)NC(=O)[C@H](CCC(=O)O)NC(=O)[C@H](CC(=O)O)NC(=O)[C@H](CC(C)C)NC(=O)C(C)(C)NC(=O)[C@@H](NC(=O)[C@H](CO)NC(=O)[C@H](Cc1ccc(O)cc1)NC(=O)[C@H](CC(=O)O)NC(=O)[C@H](CO)NC(=O)[C@@H](NC(=O)[C@H](Cc1ccccc1)NC(=O)[C@@H](NC(=O)CNC(=O)[C@H](CCC(=O)O)NC(=O)C(C)(C)NC(=O)[C@@H](N)Cc1ccc(O)cc1)[C@@H](C)O)[C@@H](C)O)[C@@H](C)CC)C(C)C)C(=O)N[C@@H](CC(N)=O)C(=O)N[C@@H](CCCCNC(=O)[C@@H](N)CCCCNC(=O)CC[C@H](NC(=O)[C@H](CCC(=O)O)NC(=O)CC[C@H](NC(=O)CC[C@H](NC(=O)CC[C@H](NC(=O)CC[C@H](NC(=O)CCCCCCCCCCCCCCCCC(=O)O)C(=O)O)C(=O)O)C(=O)O)C(=O)O)C(=O)O)C(=O)NC(C)(C)C(=O)N[C@H](C(=O)N[C@@H](CCCNC(=N)N)C(=O)N[C@@H](CCC(N)=O)C(=O)N[C@@H](CCCNC(=N)N)C(=O)N[C@@H](Cc1ccc(O)cc1)C(N)=O)[C@@H](C)O` [Compound 40, Y-Aib-E-G-T-F-T-S-D-Y-S-I-Aib-L-D-E-Q-A-Q-Aib-A-F-V-R-H-L-I-N-K(1,3)-Aib-T-R-Q-R-Y-NH2.C18DA-gGlu-gGlu-gGlu-gGlu-gGlu-gGlu-eLys(1,2)], the solubility was determined as 9500 µg/mL.
As to `CC[C@H](C)[C@H](NC(=O)[C@H](CC(C)C)NC(=O)[C@H](Cc1c[nH]cn1)NC(=O)[C@H](CCCNC(=N)N)NC(=O)[C@@H](NC(=O)[C@H](Cc1ccccc1)NC(=O)[C@H](CCC(=O)O)NC(=O)C(C)(C)NC(=O)[C@H](CCC(N)=O)NC(=O)[C@H](C)NC(=O)[C@H](CCC(N)=O)NC(=O)[C@H](CCCCN)NC(=O)[C@H](CCC(=O)O)NC(=O)[C@H](CC(C)C)NC(=O)C(C)(C)NC(=O)[C@@H](NC(=O)[C@H](CO)NC(=O)[C@H](Cc1ccc(O)cc1)NC(=O)[C@H](CC(=O)O)NC(=O)[C@H](CO)NC(=O)[C@@H](NC(=O)[C@H](Cc1ccccc1)NC(=O)[C@@H](NC(=O)CNC(=O)[C@H](CCC(=O)O)NC(=O)C(C)(C)NC(=O)[C@@H](N)Cc1ccc(O)cc1)[C@@H](C)O)[C@@H](C)O)[C@@H](C)CC)C(C)C)C(=O)N[C@@H](CC(N)=O)C(=O)N[C@@H](CCCCNC(=O)CCCCCNC(=O)CC[C@H](NC(=O)[C@H](CCC(=O)O)NC(=O)CC[C@H](NC(=O)CC[C@H](NC(=O)CC[C@H](NC(=O)CCCCCCCCCCCCCCCCC(=O)O)C(=O)O)C(=O)O)C(=O)O)C(=O)O)C(=O)N[C@@H](CC(C)C)C(=O)N[C@H](C(=O)N[C@@H](CCCNC(=N)N)C(=O)N[C@@H](CCC(N)=O)C(=O)N[C@@H](CCCNC(=N)N)C(=O)N[C@@H](Cc1ccc(O)cc1)C(N)=O)[C@@H](C)O` [Compound 45, Y-Aib-E-G-T-F-T-S-D-Y-S-I-Aib-L-E-K-Q-A-Q-Aib-E-F-V-R-H-L-I-N-K(1,3)-L-T-R-Q-R-Y-NH2.C18DA-gGlu-gGlu-gGlu-gGlu-gGlu-AHX(1,2)], the solubility stood at 5000 µg/mL.
For the compound `CC[C@H](C)[C@H](NC(=O)[C@H](CC(C)C)NC(=O)[C@H](Cc1c[nH]cn1)NC(=O)[C@H](CCCNC(=N)N)NC(=O)[C@@H](NC(=O)[C@H](Cc1ccccc1)NC(=O)[C@H](C)NC(=O)C(C)(C)NC(=O)[C@H](CCC(N)=O)NC(=O)[C@H](C)NC(=O)[C@H](CCC(N)=O)NC(=O)[C@H](CCCCN)NC(=O)[C@H](CCC(=O)O)NC(=O)[C@H](CC(C)C)NC(=O)C(C)(C)NC(=O)[C@@H](NC(=O)[C@H](CO)NC(=O)[C@H](Cc1ccc(O)cc1)NC(=O)[C@H](CC(=O)O)NC(=O)[C@H](CO)NC(=O)[C@@H](NC(=O)[C@H](Cc1ccccc1)NC(=O)[C@@H](NC(=O)CNC(=O)[C@H](CCC(=O)O)NC(=O)C(C)(C)NC(=O)[C@@H](N)Cc1ccc(O)cc1)[C@@H](C)O)[C@@H](C)O)[C@@H](C)CC)C(C)C)C(=O)N[C@@H](CC(N)=O)C(=O)N[C@@H](CCCCNC(=O)CC[C@H](NC(=O)CC[C@H](NC(=O)[C@@H](N)CCCCNC(=O)CC[C@H](NC(=O)CC[C@H](NC(=O)CC[C@H](NC(=O)CC[C@H](NC(=O)CCCCCCCCCCCCCCCCCCC(=O)O)C(=O)O)C(=O)O)C(=O)O)C(=O)O)C(=O)O)C(=O)O)C(=O)NC(C)(C)C(=O)N[C@H](C(=O)N[C@@H](CCCNC(=N)N)C(=O)N[C@@H](CCC(N)=O)C(=O)N[C@@H](CCCNC(=N)N)C(=O)N[C@@H](Cc1ccc(O)cc1)C(N)=O)[C@@H](C)O` [Compound 52, Y-Aib-E-G-T-F-T-S-D-Y-S-I-Aib-L-E-K-Q-A-Q-Aib-A-F-V-R-H-L-I-N-K(1,3)-Aib-T-R-Q-R-Y-NH2.C20DA-gGlu-gGlu-gGlu-gGlu-eLys-gGlu-gGlu(1,2)], the solubility is 9400 µg/mL.
For `CC[C@H](C)[C@H](NC(=O)[C@H](CC(C)C)NC(=O)[C@H](Cc1c[nH]cn1)NC(=O)[C@H](CCCNC(=N)N)NC(=O)[C@@H](NC(=O)[C@H](Cc1ccccc1)NC(=O)[C@H](C)NC(=O)C(C)(C)NC(=O)[C@H](CCC(=O)O)NC(=O)[C@H](C)NC(=O)[C@H](CCC(N)=O)NC(=O)[C@H](CCCCN)NC(=O)[C@H](CCC(=O)O)NC(=O)[C@H](CC(C)C)NC(=O)C(C)(C)NC(=O)[C@@H](NC(=O)[C@H](CO)NC(=O)[C@H](Cc1ccc(O)cc1)NC(=O)[C@H](CC(=O)O)NC(=O)[C@H](CO)NC(=O)[C@@H](NC(=O)[C@H](Cc1ccccc1)NC(=O)[C@@H](NC(=O)CNC(=O)[C@H](CCC(=O)O)NC(=O)C(C)(C)NC(=O)[C@@H](N)Cc1ccc(O)cc1)[C@@H](C)O)[C@@H](C)O)[C@@H](C)CC)C(C)C)C(=O)N[C@@H](CC(N)=O)C(=O)N[C@@H](CCCCNC(=O)[C@@H](N)CCCCNC(=O)[C@@H](N)CCCCNC(=O)CC[C@H](NC(=O)CC[C@H](NC(=O)CC[C@H](NC(=O)CC[C@H](NC(=O)CC[C@H](NC(=O)CC[C@H](NC(=O)CCCCCCCCCCCCCCCCCCC(=O)O)C(=O)O)C(=O)O)C(=O)O)C(=O)O)C(=O)O)C(=O)O)C(=O)NC(C)(C)C(=O)N[C@H](C(=O)N[C@@H](CCCNC(=N)N)C(=O)N[C@@H](CCC(N)=O)C(=O)N[C@@H](CCCNC(=N)N)C(=O)N[C@@H](Cc1ccc(O)cc1)C(N)=O)[C@@H](C)O` [Compound 82, Y-Aib-E-G-T-F-T-S-D-Y-S-I-Aib-L-E-K-Q-A-E-Aib-A-F-V-R-H-L-I-N-K(1,3)-Aib-T-R-Q-R-Y-NH2.C20DA-gGlu-gGlu-gGlu-gGlu-gGlu-gGlu-eLys-eLys(1,2)], the solubility at 2 h came to 9000 µg/mL.
In the case of `CC[C@H](C)[C@H](NC(=O)[C@H](CC(C)C)NC(=O)[C@H](Cc1c[nH]cn1)NC(=O)[C@H](CCCNC(=N)N)NC(=O)[C@@H](NC(=O)[C@H](Cc1ccccc1)NC(=O)[C@H](C)NC(=O)C(C)(C)NC(=O)[C@H](CCC(N)=O)NC(=O)[C@H](C)NC(=O)[C@H](CCC(N)=O)NC(=O)[C@H](CCCCN)NC(=O)[C@H](CCC(=O)O)NC(=O)[C@H](CC(C)C)NC(=O)C(C)(C)NC(=O)[C@@H](NC(=O)[C@H](CO)NC(=O)[C@H](Cc1ccc(O)cc1)NC(=O)[C@H](CC(=O)O)NC(=O)[C@H](CO)NC(=O)[C@@H](NC(=O)[C@H](Cc1ccccc1)NC(=O)[C@@H](NC(=O)[C@H](C)NC(=O)[C@H](CCC(=O)O)NC(=O)C(C)(C)NC(=O)[C@@H](N)Cc1ccc(O)cc1)[C@@H](C)O)[C@@H](C)O)[C@@H](C)CC)C(C)C)C(=O)N[C@@H](CC(N)=O)C(=O)N[C@@H](CCCCNC(=O)[C@@H](N)CCCCNC(=O)CC[C@H](NC(=O)CC[C@H](NC(=O)CC[C@H](NC(=O)CC[C@H](NC(=O)CC[C@H](NC(=O)CC[C@H](NC(=O)CCCCCCCCCCCCCCCCC(=O)O)C(=O)O)C(=O)O)C(=O)O)C(=O)O)C(=O)O)C(=O)O)C(=O)NC(C)(C)C(=O)N[C@H](C(=O)N[C@@H](CCCNC(=N)N)C(=O)N[C@@H](CCC(N)=O)C(=O)N[C@@H](CCCNC(=N)N)C(=O)N[C@@H](Cc1ccc(O)cc1)C(N)=O)[C@@H](C)O` [Compound 93, Y-Aib-E-A-T-F-T-S-D-Y-S-I-Aib-L-E-K-Q-A-Q-Aib-A-F-V-R-H-L-I-N-K(1,3)-Aib-T-R-Q-R-Y-NH2.C18DA-gGlu-gGlu-gGlu-gGlu-gGlu-gGlu-eLys(1,2)], the solubility at 2 h came to 10000 µg/mL.
`CC[C@H](C)[C@H](NC(=O)[C@H](CC(C)C)NC(=O)[C@H](Cc1c[nH]cn1)NC(=O)[C@H](CCCNC(=N)N)NC(=O)[C@@H](NC(=O)[C@H](Cc1ccccc1)NC(=O)[C@H](C)NC(=O)C(C)(C)NC(=O)[C@H](CCC(N)=O)NC(=O)[C@H](C)NC(=O)[C@H](CCC(N)=O)NC(=O)CNC(=O)[C@H](CCC(=O)O)NC(=O)[C@H](CC(C)C)NC(=O)C(C)(C)NC(=O)[C@@H](NC(=O)[C@H](CO)NC(=O)[C@H](Cc1ccc(O)cc1)NC(=O)[C@H](CC(=O)O)NC(=O)[C@H](CO)NC(=O)[C@@H](NC(=O)[C@H](Cc1ccccc1)NC(=O)[C@@H](NC(=O)CNC(=O)[C@H](CCC(=O)O)NC(=O)C(C)(C)NC(=O)[C@@H](N)Cc1ccc(O)cc1)[C@@H](C)O)[C@@H](C)O)[C@@H](C)CC)C(C)C)C(=O)N[C@@H](CC(N)=O)C(=O)N[C@@H](CCCCNC(=O)[C@@H](N)CCCCNC(=O)CC[C@H](NC(=O)CC[C@H](NC(=O)CC[C@H](NC(=O)CC[C@H](NC(=O)CC[C@H](NC(=O)CC[C@H](NC(=O)CCCCCCCCCCCCCCCCC(=O)O)C(=O)O)C(=O)O)C(=O)O)C(=O)O)C(=O)O)C(=O)O)C(=O)NC(C)(C)C(=O)N[C@H](C(=O)N[C@@H](CCCNC(=N)N)C(=O)N[C@@H](CCC(N)=O)C(=O)N[C@@H](CCCNC(=N)N)C(=O)N[C@@H](Cc1ccc(O)cc1)C(N)=O)[C@@H](C)O` [Compound 95, Y-Aib-E-G-T-F-T-S-D-Y-S-I-Aib-L-E-G-Q-A-Q-Aib-A-F-V-R-H-L-I-N-K(1,3)-Aib-T-R-Q-R-Y-NH2.C18DA-gGlu-gGlu-gGlu-gGlu-gGlu-gGlu-eLys(1,2)]: the solubility at 2 h came to 4400 µg/mL.
